Read-outs that look alike come from different tables or passages of the source.
Tests used:
[1] = target: T1, acetylcholinesterase from eel (Electrophorus electricus, UniProt O42275); experiment: Acetylcholinesterase (AChE) inhibition (Ellman); format: biochemical; details: read-out: AChE Inhibition (%), 300 μM compound
T1 construct: purchased Sigma
Procedure: (0.31 mM) in phosphate buffer with pH = 7. The incubation mixture is monitored for 7 min at 37 °C.

[2] = system: mouse liver microsomal lipid peroxidation; experiment: Inhibition of mouse liver microsomal lipid peroxidation (LP); details: read-out: LP IC50 Value; 45 min incubation
[3] = Iron chelation (ferrozine assay); details: 100 μM compound, Fe2+ 20 μM
Procedure: […] The reaction was initiated with the addition of a 100 μM aqueous ferrozine solution, which chelates iron ions, resulting in an increased maximum absorbance at 562 nm. After incubation at 37 °C for 10 min, the mixture’s absorbance is measured at 562/700 nm. Each value is expressed as the mean of 3 tests per sample [46].

[4] = system: plasma of hyperlipidaemic mice; experiment: Total antioxidant capacity (TAC) of plasma in hyperlipidaemic mice; format: in vivo; details: Mus musculus, ip, 24 h, i.p. 84 μmol/kg, read-out: Total Antioxidant Capacity (TAC) Increase (%)
[5] = target: soybean lipoxygenase (LOX-3); experiment: Soybean lipoxygenase (LOX-3) inhibition; format: biochemical; details: after 5 min of incubation; sodium linoleate 100 μM, pH 9.0
Procedure: Lipoxygenase (LOX) inhibitory activity was determined using soybean lipoxygenase (250 U/mL) and sodium linoleate (100 μM) as substrate, in Tris–HCl buffer pH 9.0.

[6] = system: carrageenan-induced mouse paw edema; experiment: Carrageenan-induced mouse paw edema; format: in vivo, C57BL/6 mice; details: ip, 3.5 h, i.p. 0.30 mmol/kg, female C57BL/6, 3.5 h after carrageenan, read-out: % Edema (decrease of carrageenan-induced paw edema vs control)
Procedure: For the in vivo anti-inflammatory activity, C57BL/6 mice were injected with 0.025 mL carrageenan (2% w/v solution in saline) i.d. into the right hind paw, the left paw serving as control. The test compounds dissolved in saline (300 μmol/kg) were given i.p. right after the carrageenan injection, and 3.5 h later the produced edema was estimated as paw weight increase. Results are expressed as percentage of reduction in paw-edema and are the mean of 6 animals (per compound).

hyperlipidaemic mice = experiment: Tyloxapol (Triton WR 1339)-induced hyperlipidemia, plasma lipid parameters; format: in vivo; details: Mus musculus, ip, 24 h, i.p. 84 μmol/kg, 24 h
Procedure: An aqueous solution of Triton WR 1339 was given i.p. to mice (400 mg/kg of body weight) and one hour later the test compounds (84 μmol/kg of body weight), dissolved in saline or saline only, were administered i.p. After 24 h, blood was taken from the aorta/heart and used for the determination of plasma total cholesterol (TC), triglyceride (TG) levels, and high-density lipoprotein (HDL) levels, using commercially available kits (Biosis Cholesterol Enzymatic/PAP, Biosis Triglycerides GPO/PAP, and Biosis HDL Phosphovolframic, Biosis, Athens Greece). Levels of plasma lipids were determined in duplicate while values presented are the mean from 8 animals (per compound). The levels of low-density lipoprotein (LDL) are calculated according to the equation: LDL (mg/dL) = 3/4 * (TC-HDL).

[7] = Radical scavenging of DPPH; details: DPPH 200 μM, 30 min incubation
Procedure: Compounds, dissolved in absolute methanol, at concentrations of 25–400 μM, were added to an equal volume of a methanolic solution of DPPH (final concentration 200 μM) at room temperature (22 ± 2 °C).

AChE = details: read-out: IC50 against AChE; cited from earlier work

T1 sequence (O42275 24-633): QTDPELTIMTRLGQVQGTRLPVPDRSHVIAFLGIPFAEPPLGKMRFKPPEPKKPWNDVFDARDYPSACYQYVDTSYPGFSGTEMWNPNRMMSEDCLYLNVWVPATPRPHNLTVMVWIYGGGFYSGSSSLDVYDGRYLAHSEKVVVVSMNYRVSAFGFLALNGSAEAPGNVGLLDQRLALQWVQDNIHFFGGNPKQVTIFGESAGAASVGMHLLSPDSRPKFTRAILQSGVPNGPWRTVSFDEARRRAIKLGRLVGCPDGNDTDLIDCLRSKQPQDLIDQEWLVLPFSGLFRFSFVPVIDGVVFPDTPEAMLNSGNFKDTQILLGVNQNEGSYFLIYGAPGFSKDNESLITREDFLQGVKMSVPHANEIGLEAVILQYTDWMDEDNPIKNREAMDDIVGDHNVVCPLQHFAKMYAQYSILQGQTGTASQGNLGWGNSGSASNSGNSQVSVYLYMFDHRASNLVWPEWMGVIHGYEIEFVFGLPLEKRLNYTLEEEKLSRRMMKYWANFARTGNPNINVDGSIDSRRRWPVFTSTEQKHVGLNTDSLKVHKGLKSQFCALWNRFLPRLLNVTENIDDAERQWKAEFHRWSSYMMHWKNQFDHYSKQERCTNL

## CC(C)Cc1ccc(C(C)C(=O)N2CC(c3ccc(-c4ccccc4)cc3)Sc3ccccc32)cc1 (stereo not shown) [Compound 17, 1-(2-([1,1′-Biphenyl]-4-yl)-2,3-dihydro-4H-benzo[b][1,4]thiazin-4-yl)-2-(4-isobutylphenyl)propan-1-one]
[1]
  inhibition at 300 µM: 13%
[2]
  IC50: > 1000 µM
[3]
  % of Fe(II) Chelation (at 100 μM): 29%
[4]
  change in vivo at 84 µmol/kg: 139%
[5]
  IC50: 104 µM
[6]
  inhibition in vivo at 300 µmol/kg: 39%
Hyperlipidaemic mice; plasma, vs tyloxapol control, read-out: % HDL Increase
  change in vivo at 84 µmol/kg: 43%
Hyperlipidaemic mice; LDL calculated as 3/4*(TC-HDL), read-out: % LDL Decrease
  inhibition in vivo at 84 µmol/kg: 68%
Hyperlipidaemic mice; plasma, vs tyloxapol control, read-out: % Total Cholesterol (TC) Reduction
  inhibition in vivo at 84 µmol/kg: 45%
Hyperlipidaemic mice; plasma, vs tyloxapol control, read-out: % Triglycerides (TG) Reduction
  inhibition in vivo at 84 µmol/kg: 58%
[7]
  IC50: > 400 µM

## O=C(/C=C/c1ccc(O)c(O)c1)O[C@@H]1C[C@](O)(C(=O)O)C[C@@H](O)[C@H]1O [chlorogenic acid]
AChE
  IC50: ~277 µM

## COc1cc(C(=O)O)cc(OC)c1O [syringic acid]
AChE
  IC50: ~149 µM
